Measurements reported in ChEMBL document CHEMBL3880388, “Dihydropyrimidin-2(1H)-ones and dihydropyrimidin-2(1H)-thiones as inhibitors of sodium iodide symporter” (2014).

Test system: not listed separately
Experiment: Cytotoxicity against rat FRTL5 cells assessed as effect on cell growth at 1 uM measured at 24 hrs by MTT assay
Assay type: cell-based
Details: frtl-5, 24 h

Row | SMILES | Activity
1 | COc1ccc(COC(=O)C2=C(C)N(C)C(=O)N(C)C2c2ccco2)cc1 (centres undefined) | Non-Toxic
2 | CC1=C(C(=O)OCc2ccc(F)cc2)C(c2ccccc2)NC(=O)N1 (centres undefined) | Non-Toxic
3 | COc1ccc(COC(=O)C2=C(C)NC(=O)NC2c2ccoc2)cc1 (centres undefined) | Non-Toxic
4 | COc1ccc(COC(=O)C2=C(CNC(=O)c3ccccc3)NC(=O)NC2c2ccccc2)cc1 (centres undefined) | Non-Toxic
5 | COc1ccc(COC(=O)C2=C(C3CCCCC3)NC(=O)NC2c2ccccc2)cc1 (centres undefined) | Non-Toxic
6 | COc1ccc(COC(=O)C2=C(C)NC(=O)NC2c2ccc(F)cc2)cc1 (centres undefined) | Non-Toxic
7 | COc1ccc(COC(=O)C2=C(C)NC(=O)NC2c2cccc(F)c2)cc1 (centres undefined) | Non-Toxic
8 | CC1=C(C(=O)OCc2ccc3c(c2)OCO3)C(c2ccco2)N(C)C(=O)N1C (centres undefined) | Non-Toxic
9 | COc1ccc(COC(=O)C2=C(C)N(C)C(=O)NC2c2ccccc2)cc1 (centres undefined) | Non-Toxic
10 | CCCCCC1=C(C(=O)OCc2ccc(OC)cc2)C(c2ccccc2)NC(=O)N1 (centres undefined) | Non-Toxic
11 | COc1ccc(COC(=O)C2=C(c3cccs3)NC(=O)NC2c2ccccc2)cc1 (centres undefined) | Non-Toxic
12 | COc1cccc(COC(=O)C2=C(C)NC(=O)NC2c2ccccc2)c1 (centres undefined) | Non-Toxic
13 | COc1ccc(COC(=O)C2=C(C)NC(=S)NC2c2ccccc2)cc1 (centres undefined) | Non-Toxic
14 | CC1=C(C(=O)OCc2ccc3c(c2)OCO3)C(c2ccccc2)NC(=O)N1 (centres undefined) | Non-Toxic
15 | COc1ccc(COC(=O)C2=C(C)N(C)C(=O)N(C)C2c2ccco2)cc1OC (centres undefined) | Non-Toxic
16 | COc1ccc(COC(=O)C2=C(CC(C)C)NC(=O)NC2c2ccccc2)cc1 (centres undefined) | Non-Toxic
17 | CC1=C(C(=O)OCc2ccccc2C)C(c2ccccc2)NC(=O)N1 (centres undefined) | Non-Toxic
18 | COc1ccc(COC(=O)C2=C(C)NC(=O)NC2c2cccs2)cc1 (centres undefined) | Non-Toxic
19 | CC1=C(C(=O)OCc2ccccc2Cl)C(c2ccccc2)NC(=O)N1 (centres undefined) | Non-Toxic
20 | COc1ccc(COC(=O)C2=C(C)NC(=O)NC2c2ccc(C)o2)cc1 (centres undefined) | Non-Toxic
21 | COc1ccc(COC(=O)C2=C(C)NC(=O)NC2c2ccsc2)cc1 (centres undefined) | Non-Toxic

Row | SMILES | Activity
22 | CC1=C(C(=O)OCc2ccc3c(c2)OCO3)C(c2ccoc2)NC(=O)N1 (centres undefined) | Non-Toxic
23 | COc1ccc(COC(=O)C2=C(COc3ccccc3)NC(=O)NC2c2ccccc2)cc1 (centres undefined) | Non-Toxic
24 | COc1ccc(COC(=O)C2=C(C)NC(=O)NC2c2ccco2)cc1 (centres undefined) | Non-Toxic
25 | COc1ccc(COC(=O)C2=C(C)NC(=O)NC2C2CC2)cc1 (centres undefined) | Non-Toxic
26 | CC1=C(C(=O)OCc2ccc3c(c2)OCO3)C(c2ccco2)NC(=O)N1C (centres undefined) | Non-Toxic
27 | COc1ccc(COC(=O)C2=C(C)NC(=O)NC2c2cccc(Br)c2)cc1 (centres undefined) | Non-Toxic
28 | COc1ccc(COC(=O)C2=C(C)NC(=O)NC2c2ccccc2F)cc1 (centres undefined) | Non-Toxic
29 | COc1cccc(COC(=O)C2=C(C)N(C)C(=O)NC2c2ccco2)c1 (centres undefined) | Non-Toxic
30 | CCC1=C(C(=O)OCc2ccc(OC)cc2)C(c2ccccc2)NC(=O)N1 (centres undefined) | Non-Toxic
31 | CC1=C(C(=O)OCc2ccc(Cl)cc2)C(c2ccccc2)NC(=O)N1 (centres undefined) | Non-Toxic
32 | COc1ccc(COC(=O)C2=C(C)N(C)C(=O)N(C)C2c2ccccc2)cc1 (centres undefined) | Non-Toxic
33 | COc1ccc(COC(=O)C2=C(C)N(C)C(=O)NC2c2ccco2)cc1 (centres undefined) | Non-Toxic
34 | COc1cccc(COC(=O)C2=C(C)N(C)C(=O)N(C)C2c2ccco2)c1 (centres undefined) | Non-Toxic
35 | COc1ccc(COC(=O)C2=C(Cc3ccccc3)NC(=O)NC2c2ccccc2)cc1 (centres undefined) | Non-Toxic
36 | CC1=C(C(=O)OCc2ccccc2)C(c2ccccc2)NC(=O)N1 (centres undefined) | Non-Toxic
37 | COc1cccc(COC(=O)C2=C(C)NC(=O)NC2c2ccco2)c1 (centres undefined) | Non-Toxic
38 | CC1=C(C(=O)NCc2ccc3c(c2)OCO3)C(c2ccccc2)NC(=O)N1 (centres undefined) | Non-Toxic
39 | COc1ccc(COC(=O)C2=C(c3ccccc3)NC(=O)NC2c2ccccc2)cc1 (centres undefined) | Non-Toxic
40 | COc1ccc(COC(=O)C2=C(C)NC(=O)NC2c2cccc(Cl)c2)cc1 (centres undefined) | Non-Toxic
41 | CC1=C(C(=O)OCc2ccc3c(c2)OCO3)C(c2ccco2)NC(=O)N1 (centres undefined) | Non-Toxic
42 | COc1ccc(COC(=O)C2=C(Cc3cccs3)NC(=O)NC2c2ccccc2)cc1 (centres undefined) | Non-Toxic

Target: T1, Sodium/iodide cotransporter (Rattus norvegicus, UniProt Q63008)
T1 sequence (Q63008 whole entry): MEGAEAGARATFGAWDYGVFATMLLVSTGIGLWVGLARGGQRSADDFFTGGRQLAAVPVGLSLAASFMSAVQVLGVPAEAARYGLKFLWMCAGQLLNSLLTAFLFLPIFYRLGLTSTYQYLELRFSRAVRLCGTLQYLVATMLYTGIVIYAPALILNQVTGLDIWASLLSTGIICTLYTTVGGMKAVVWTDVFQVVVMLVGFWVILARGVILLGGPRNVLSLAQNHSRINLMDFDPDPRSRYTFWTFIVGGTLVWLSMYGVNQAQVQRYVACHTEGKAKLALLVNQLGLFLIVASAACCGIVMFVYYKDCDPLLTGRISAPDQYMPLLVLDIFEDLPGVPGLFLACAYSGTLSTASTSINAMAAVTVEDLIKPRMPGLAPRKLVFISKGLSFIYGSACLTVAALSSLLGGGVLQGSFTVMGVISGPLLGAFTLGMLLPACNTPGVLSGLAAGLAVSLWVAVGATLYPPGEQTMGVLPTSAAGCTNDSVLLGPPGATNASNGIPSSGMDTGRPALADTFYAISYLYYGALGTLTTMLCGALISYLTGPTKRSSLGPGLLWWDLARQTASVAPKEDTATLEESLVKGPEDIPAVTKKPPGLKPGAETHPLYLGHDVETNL
Experiment: Inhibition of sodium iodide symporter in rat FRTL5 cells assessed as inhibition of iodide uptake using NaI/Na125I after 45 mins by scintillation counting method
Assay type: cell-based, FRTL-5
Details: not given

Row | SMILES | IC50
43 | F[B-](F)(F)c1ccc(OCc2ccccc2)cc1 | 400 nM

Target: T1, Sodium/iodide cotransporter
Experiment: Inhibition of sodium iodide symporter in rat FRTL5 cells assessed as inhibition of iodide uptake using Na125I after 60 mins by scintillation counting method
Assay type: cell-based, FRTL-5
Details: not given

Row | SMILES | IC50
44 | COc1ccc(COC(=O)C2=C(C)NC(=O)NC2c2ccccc2)cc1 (centres undefined) | 400 nM
